# Tests used:
# A549 = assay: MTT cytotoxicity assay; format: cell-based, human; conditions: 48 h drug exposure
# Method: (§1) The results reveal that the steric hindrance plays a significant role in the cytotoxicity of complex 3.
# (§2) The effects of complex 3 on the viability of NSCLC cancer cells including A549 and NCI-H1299 were detected respectively via MTT assays at time points of 12, 24, 48 and 72 h (Figure 2A). The results shown that complex 3 could inhibit the viability of the NSCLC cells.
# (§3) Human cancer cell lines HepG2, SGC-7901, HCT-116, A549, NCI-H1299 and MCF-7 as well as normal liver cell line L02 were purchased from the Cell Bank of Shanghai Institute of Cell Biology. Among them, MCF-7, HepG2 cells were cultured at 37 °C in 5% CO2 with DMEM supplemented with 10% fetal bovine serum (FBS) (Hyclone, Lifescience, USA) and 1% penicillin/streptomycin (Beyotime, Nantong, China), while HCT-116, SGC-7901, A549, NCI-H1299 and L02 cells were cultured at 37 °C in 5% CO2 with RPMI-1640 supplemented with 10% FBS and 1% penicillin/streptomycin. Cells were passed every 2 days and restarted from frozen stocks upon reaching pass number 20.
# (§4) In vitro cytotoxicity of the platinum compounds against human hepatocellular carcinoma (HepG-2), gastric carcinoma (SGC-7901), non-small-cell lung cancer (A549), and colorectal cancer (HCT-116) cell lines were measured by the MTT assays. Briefly, the cells were seeded in 96-well cultured plates at a density of 5000 cells/well. After overnight incubation (16 h), the cells were treated with the platinum complexes. After 48 h of incubation, 10 μL of a freshly diluted 3-(4,5-dimethyl-2-thiazolyl)-2,5-diphenyl-2H-tetrazolium bromide (MTT) solution (5 mg/mL) were added to each well and the plates were incubated at 37 °C in a humidified 5% CO2 atmosphere for 4 h. At the end of the incubation period the medium was removed and the formazan product was dissolved in 150 μL of DMSO. The cell viability was evaluated by measurement of the absorbance at 490 nm, using an Absorbance Reader (BioRad). IC50 values (compound concentration that produces 50% of cell growth inhibition) were calculated from curves constructed by plotting cell survival inhibitory rate (%) versus drug concentration logarithm. All experiments were repeated in three times. The reading values were converted to the percentage of control (% cell survival). Cytotoxic effects were expressed as IC50 values.
# NCI-H1299 = assay: MTT cytotoxicity assay; format: cell-based, human; conditions: 48 h drug exposure, read-out: IC50 NCI-H1299
# Method: as §1, §2, §3, §4
# SGC-7901 = assay: MTT cytotoxicity assay; format: cell-based, human; conditions: 48 h drug exposure
# Method: as §1, §3, §4
# HepG2 = assay: MTT cytotoxicity assay; format: cell-based, human; conditions: 48 h drug exposure
# Method: as §1, §3, §4
# HCT-116 = assay: MTT cytotoxicity assay; format: cell-based, human; conditions: 48 h drug exposure
# Method: as §1, §3, §4
# [1] = test system: L02 normal liver cell line; assay: MTT cytotoxicity assay; format: cell-based; conditions: 48 h drug exposure
# Method: as §1, §3, §4
# p-Akt = assay: Western blot of PI3K/Akt/mTOR pathway; format: cell-based, human; conditions: A549, 10 μM, 24 h, relative to control
# Text: (§5) The mammalian target of rapamycin (mTOR) kinase is used to regulate autophagy as controlled though oxidative stress, hypoxia and growth receptors. The phosphatidylinosital-3 kinase (PI3K)/Akt signaling pathway activates mTOR through phosphorylating and inactivating the tuberous sclerosis complex (TSC)1–TSC2 complex. Inhibition of mTOR results in activation of autophagy. […] At the same time, levels of the p-Akt protein decreased to 0.95-, 1.02-, and 0.39-folds, respectively (Figure 7B). […] As a results, the administration of complex 3 decreased levels of proteins in PI3K/Akt/mTOR signaling pathways.
# (§6) Lysates were centrifuged at 12,000 g for 0.5 h at 4°C. The concentrations of total proteins were measured using the BCA assay method with Varioskan spectrofluorometer and spectrophotometer (Thermo, Waltham, MA) at 562 nm. Protein (20–100 μg) prepared from the indicated cells was loaded per lane and electrophoresed in 8% or 10% sodium dodecyl sulfate polyacrylamide gel electrophoresis (SDS-PAGE), and then transferred onto polyvinylidene difluoride (PVDF) Immobilon-P membrane (Bio-Rad, USA) using a transblot apparatus (Bio-Rad, USA). The membranes were blocked with 5% (w/v) non-fat milk at 0.5 h at 37°C, followed by overnight incubation at 4°C with primary antibodies diluted in PBST. After washing with PBST, the membranes were incubated for 1 h with an IRDye´800 conjugated secondary antibody diluted 1:20000 in PBST, and the labeled proteins were detected with an Odyssey Scanning System (Li-COR., Lincoln, Nebraska, USA).
# p-mTOR = assay: Western blot of PI3K/Akt/mTOR pathway; format: cell-based, human; conditions: A549, 10 μM, 24 h, relative to control
# Text: as §5, §6
# MCF-7 = assay: MTT cytotoxicity assay; format: cell-based, human; conditions: exposed for 48 h
# Method: as §3
# In vitro cytotoxicity of the platinum compounds against human hepatocellular carcinoma (HepG-2), gastric carcinoma (SGC-7901), non-small-cell lung cancer (A549), and colorectal cancer (HCT-116) cell lines were measured by the MTT assays. Briefly, the cells were seeded in 96-well cultured plates at a density of 5000 cells/well. After overnight incubation (16 h), the cells were treated with the platinum complexes. […] The cell viability was evaluated by measurement of the absorbance at 490 nm, using an Absorbance Reader (BioRad). […] The reading values were converted to the percentage of control (% cell survival). Cytotoxic effects were expressed as IC50 values.
# A549 cells [2] = assay: Quantification of apoptotic cells (annexin V/PI flow cytometry); format: cell-based, human; conditions: A549, NAC pretreatment
# Method: (§7) The role of complex 3-induced autophagy in cell death was further analyzed (Figure 6). When A549 cancer cells were treated with complex 3 of 10 μM, the protein expression of LC3-II was increased (Figure 6A). […] Treatment with complex 3 for 24 h caused a 4.5-folds increase in cells undergoing autophagy (Figure 6C). […] Moreover, Bax and Bcl-2 expressions were measured by western blot analysis of whole cell lysates.
# (§8) To investigate the role of ROS in complex 3-induced cell death, the level of intracellular H2O2 was measured. […] Exposure of A549 cells to NAC reduced levels of LC3-II from 2.3- to 1.5-folds (Figure 8B). […] In parallel, the complex 3-induced increase ratio of Bax/Bcl-2 was suppressed by NAC (Figure 8E).
# The mode of cell death was analyzed by flow cytometry with annexin V/propidium iodide (PI) double-staining to detect membrane events according to a previous study. After individual treatments, whole cells were collected in 4-(2-hydroxyethyl)-1-piperazineethanesulfonic acid (HEPES) buffer containing 10 mM HEPES (pH 7.4), 140 mM NaCl, and 2.5 mM CaCl2. Cells were subsequently stained with annexin V (2.5 μg/ml) and PI (2 ng/ml) for 20 min, followed by analysis by flow cytometry (Beckman Coulter). Cystograms of the four quadrants in the figure were used to distinguish normal (annexin V^−/PI^−), early apoptotic (annexin V^+/PI^−), late apoptotic(annexin V^+/PI^+), and necrotic cells (annexin V^−/PI^+). The sum of early apoptosis and late apoptosis is presented as total apoptosis.
# pET28a plasmid DNA = assay: Agarose gel electrophoresis of plasmid DNA; conditions: 0, 20, 80, 320, 640 μM
# Method: The tested complexes were incubated with DNA at different concentrations.
# Appropriate dilutions of tested complexes were made, and the required volumes of solutions were added to achieve a set of concentrations in the range of 0–100 mm; pET22b DNA (5 mL, 0.20 mg) was added to each tube, and the mixtures of platinum complexes and pET22b plasmid DNA were then incubated at 37°C for 6 or 24 h. Afterward, the agarose gel (made up to 1% w/v) containing ethidium bromide was prepared with TA buffer (50 mm Tris-acetate, pH 7.5). The mixtures with loading buffer (1 mL) underwent electrophores is in agarose gel in TA buffer at 100 V for 60 min. Bands were imaged using a Molecular Imager (Bio-Rad, USA) under UV light.
# A549 cells [3] = assay: Autophagy by acridine orange flow cytometry (AVOs); format: cell-based, human; conditions: A549, NAC pretreatment
# Method: as §7, §8
# Flow cytometry with acridine orange staining as described in a previous study was used to detect and quantify the AVOs, one of the characteristicsof autophagy. At the end of individual experiments, A549 cells were collected in phenol red-free RPMI 1640 medium. Green (FL-1) and red (FL-3) fluorescences of acridine orange were measured using a flow cytometer and CellQuest software (Becton Dickinson, San Jose, CA). The sum of the upper-left and upper-right quadrants of the cytogram was used to estimate the percentage of cells undergoing autophagy.
# NCI-H1299 cells = assay: Annexin V-FITC/PI apoptosis assay (flow cytometry); format: cell-based, human; conditions: NCI-H1299, 50 μM for 24 h (figure legend and method: 10 μM)
# Method: (§9) Apoptosis is a crucial programmed death form of aging or damaged cells. […] To further explore the impact of complex 3 on long-term clonogenic survival, colony formation assay was performed.
# (§10) Annexin V-FITC apoptosis detection kit (Keygen, Jiangsu, China) assay was performed according to the manufacturer's protocol. […] Then the cells were collected, resuspended in binding buffer (pH 7.5, 10 mM HEPES, 2.5 mM CaCl2 and 140 mM NaCl), incubated with Annexin V-FITC and then PI for 10 min in the dark at room temperature, the processed cells were analyzed by flow cytometry (FACSCalibur, Becton Dickinson) and a computer station running Cell-Quest software. (BD Biosciences, Franklin Lakes, NJ).
# A549 cells [4] = assay: Annexin V-FITC/PI apoptosis assay (flow cytometry); format: cell-based, human; conditions: A549, 50 μM for 24 h (figure legend and method: 10 μM)
# Method: as §9, §10
smiles,measurement,setting,value
CC(C)C[NH+]1[C@@H]2CCCC[C@H]2[NH+](CC(C)C)[Pt-2]1([Cl])[Cl] (stereo partly shown) [Complex 1],IC50,A549,> 100 µM
same,IC50,NCI-H1299,> 100 µM
same,IC50,SGC-7901,44.6 ± 3.24 µM
same,IC50,HepG2,34.1 ± 2.55 µM
same,IC50,HCT-116,70.5 ± 5.56 µM
same,IC50,[1],148 ± 10.6 µM
CC(C)C[NH+]1[C@@H]2CCCC[C@H]2[NH+](CC(C)C)[Pt-2]12[O]C(=O)C(=O)[O]2 (stereo partly shown) [Complex 2],IC50,A549,28.4 ± 1.45 µM
same,IC50,NCI-H1299,> 100 µM
same,IC50,SGC-7901,> 100 µM
same,IC50,HepG2,> 100 µM
same,IC50,HCT-116,37 ± 2.76 µM
same,IC50,[1],> 100 µM
"CC(C)CN[C@@H]1CCCC[C@H]1N.O=C([O-])CC(=O)[O-].[Pt+2] [Complex 3a, [(1R,2R)-N^1-(2-methylpropyl)-1,2-cyclohexanediamine-N,N’](malonato-O,O’), reference compound]",IC50,A549,77.5 ± 5.04 µM
same,IC50,NCI-H1299,94.9 ± 6.74 µM
same,IC50,HepG2,> 100 µM
same,IC50,HCT-116,65.8 ± 4.95 µM
same,levels of the p-Akt protein,p-Akt,0.39 folds
same,amounts of p-mTOR,p-mTOR,0.69 folds
same,IC50,MCF-7,> 100 µM
same,effect of NAC pretreatment on percentage of apoptosis,A549 cells [2],no decreased percentage
same,gel electrophoretic mobility of plasmid DNA,pET28a plasmid DNA,no migration was observed
same,effect of NAC pretreatment on percentage of autophagy,A549 cells [3],no decreased percentage of autophagy
same,early and median apoptotic cells,NCI-H1299 cells,4.58%
same,late apoptotic cells,NCI-H1299 cells,4.12%
same,early and median apoptotic cells,A549 cells [4],12.37%
CC(C)C[NH+]1[C@@H]2CCCC[C@H]2[NH+](CC(C)C)[Pt-2]12[O]C(=O)C1(CCC1)C(=O)[O]2 (stereo partly shown) [Complex 4],IC50,A549,> 100 µM
same,IC50,NCI-H1299,> 100 µM
same,IC50,SGC-7901,> 100 µM
same,IC50,HepG2,> 100 µM
same,IC50,HCT-116,> 100 µM
same,IC50,[1],> 100 µM
